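Grown in 96-well plates, cells were treated for 48 hours with each compound at five concentrations. Insufficient inhibition: endpoint recorded as highest concentration tested. GI50 marks 50% less growth.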 The source made the active and inactive calls. Rule as the data show it: active = GI50 up to about 1.1 µM and inactive = higher.
Key:
Assay in all cases: NCI tumour cell line growth inhibition, 48 h
SF-539 = test system: SF-539
SF-268 = test system: SF-268
MOLT-4 = test system: MOLT-4
SK-MEL-28 = test system: SK-MEL-28
UACC-257 = test system: UACC-257
HCC 2998 = test system: HCC 2998
NCI-H226 = test system: NCI-H226
HCT-15 = test system: HCT-15
NCI/ADR-RES = test system: NCI/ADR-RES
SNB-75 = test system: SNB-75
DU-145 = test system: DU-145
SK-MEL-5 = test system: SK-MEL-5
Malme-3M = test system: Malme-3M
HT-29 = test system: HT-29
ACHN = test system: ACHN
MCF7 = test system: MCF7
KM12 = test system: KM12
MDA-MB-231 = test system: MDA-MB-231
A498 = test system: A498

Row | SMILES | GI50 (SF-539) | GI50 (SF-268) | GI50 (MOLT-4) | GI50 (SK-MEL-28) | GI50 (UACC-257) | GI50 (HCC 2998) | GI50 (NCI-H226) | GI50 (HCT-15) | GI50 (NCI/ADR-RES) | GI50 (SNB-75) | GI50 (DU-145) | GI50 (SK-MEL-5) | GI50 (Malme-3M) | GI50 (HT-29) | GI50 (ACHN) | GI50 (MCF7) | GI50 (KM12) | GI50 (MDA-MB-231) | GI50 (A498)
1 | COc1cc(/C=C(\C#N)c2ccccn2)cc(Br)c1O | 31.3 µM (inactive) | 51.4 µM (inactive) | 35 µM (inactive) | 26.8 µM (inactive) | 48.8 µM (inactive) | 36.8 µM (inactive) | 72.6 µM (inactive) | 21.9 µM | 20.9 µM (inactive) | 37 µM (inactive) | > 100 µM (inactive) | 40.1 µM (inactive) | 26.4 µM (inactive) | 40.1 µM (inactive) | 97.7 µM (inactive) | 24.4 µM (inactive) | 36.1 µM (inactive) |  | 
2 | O=c1[nH]c2ccc(Cl)cc2c2oc(-c3ccccc3)nc12 | 29.3 µM (inactive) | 36 µM (inactive) | 76.2 µM (inactive) |  | 52.7 µM (inactive) | 26.3 µM (inactive) | 21.2 µM (inactive) | 51.6 µM | 29.5 µM (inactive) |  |  | 25.9 µM (inactive) | 29.3 µM (inactive) | 83.9 µM (inactive) | 24.5 µM (inactive) | 6.07 µM (inactive) | 40.8 µM (inactive) | 19.3 µM (inactive) | 21.3 µM (inactive)
3 | Cc1ccc(-c2c(C#N)c(-c3ccc(C)cc3)n(NS(=O)(=O)c3ccccc3)c(=O)c2C#N)cc1 | 21.2 µM (inactive) | > 100 µM (inactive) | 25.2 µM (inactive) | 49.2 µM (inactive) | 86.1 µM (inactive) | 25.2 µM (inactive) | > 100 µM (inactive) | 39.4 µM | 50.5 µM (inactive) | > 100 µM (inactive) |  | 16 µM (inactive) | 86.5 µM (inactive) | 41.7 µM (inactive) | 37.5 µM (inactive) | 24 µM (inactive) | 56.5 µM (inactive) | > 100 µM (inactive) | 51.2 µM (inactive)
4 | Cc1ccc(C)n1-n1c(Cc2ccc(Cl)cc2)n[nH]c1=O |  | > 100 µM (inactive) | 29 µM (inactive) | > 100 µM (inactive) | 74.8 µM (inactive) |  | 84.7 µM (inactive) | > 100 µM | 40.8 µM (inactive) | > 100 µM (inactive) | > 100 µM (inactive) | 51.8 µM (inactive) | 92.5 µM (inactive) | 73.8 µM (inactive) | > 100 µM (inactive) | 90.4 µM (inactive) | 46 µM (inactive) | > 100 µM (inactive) | > 100 µM (inactive)
5 | CC(=O)Nc1ccc(NCC(=O)Nn2cnc3ccc(S(=O)(=O)Nc4ccc(NC(C)=O)cc4)cc3c2=O)cc1 | > 100 µM (inactive) | > 100 µM (inactive) | > 100 µM (inactive) | > 100 µM (inactive) | > 100 µM (inactive) | > 100 µM (inactive) | > 100 µM (inactive) | > 100 µM | > 100 µM (inactive) | > 100 µM (inactive) | > 100 µM (inactive) |  | > 100 µM (inactive) | > 100 µM (inactive) | > 100 µM (inactive) | > 100 µM (inactive) | > 100 µM (inactive) | > 100 µM (inactive) | 
6 | COc1cc(OC)c(C2c3cc4c(cc3OC(N3CCOCC3)C2C)OCO4)c(OC)c1 (centres undefined) | 12.3 µM (inactive) | 20.5 µM (inactive) | 21.4 µM (inactive) | > 100 µM (inactive) | 78.7 µM (inactive) | > 100 µM (inactive) |  | 17.4 µM | 34.8 µM (inactive) | 16.4 µM (inactive) | 21.5 µM (inactive) | 47 µM (inactive) |  | 21.9 µM (inactive) | 12.3 µM (inactive) | 37.8 µM (inactive) | 24.5 µM (inactive) |  | 
7 | Clc1cc(N/N=C(/c2ccccc2)c2ncccn2)ncn1 | 21.9 µM (inactive) | 34 µM (inactive) | 5.87 µM (inactive) | 36.9 µM (inactive) | 20.9 µM (inactive) | 70.3 µM (inactive) | 56.4 µM (inactive) | 17.9 µM | 20.1 µM (inactive) | 26.1 µM (inactive) | 39.2 µM (inactive) | 25.8 µM (inactive) |  | 2.58 µM (inactive) | 4.78 µM (inactive) | 14.8 µM (inactive) | 43 µM (inactive) | 20.2 µM (inactive) | 
8 | Cc1nnc(S(=O)(=O)c2ccc(/N=N/c3c(N)nc(N)nc3N)cc2)s1 | > 100 µM (inactive) | > 100 µM (inactive) | > 100 µM (inactive) | > 100 µM (inactive) | > 100 µM (inactive) |  | > 100 µM (inactive) | > 100 µM | > 100 µM (inactive) |  | > 100 µM (inactive) | > 100 µM (inactive) | > 100 µM (inactive) | > 100 µM (inactive) | > 100 µM (inactive) | > 100 µM (inactive) | > 100 µM (inactive) | > 100 µM (inactive) | > 100 µM (inactive)
